Experimental data: ChEMBL document CHEMBL1201862, “PubChem BioAssay data set” (2004)
Active and inactive are the calls of the source.

Experiments:
[1] = A cytotoxicity screen of small molecule inhibitors of the PhoP region in Salmonella typhi identified in the primary screen. [Related pubchem assays: 1850, 1864, 1985 ]; type: functional
[2] = target: Glyceraldehyde-3-phosphate dehydrogenase (Homo sapiens, UniProt P04406)
[3] = target: T1, Dual specificity protein phosphatase 6 (Rattus norvegicus, UniProt Q64346); type: functional
T1 sequence (Q64346 whole entry): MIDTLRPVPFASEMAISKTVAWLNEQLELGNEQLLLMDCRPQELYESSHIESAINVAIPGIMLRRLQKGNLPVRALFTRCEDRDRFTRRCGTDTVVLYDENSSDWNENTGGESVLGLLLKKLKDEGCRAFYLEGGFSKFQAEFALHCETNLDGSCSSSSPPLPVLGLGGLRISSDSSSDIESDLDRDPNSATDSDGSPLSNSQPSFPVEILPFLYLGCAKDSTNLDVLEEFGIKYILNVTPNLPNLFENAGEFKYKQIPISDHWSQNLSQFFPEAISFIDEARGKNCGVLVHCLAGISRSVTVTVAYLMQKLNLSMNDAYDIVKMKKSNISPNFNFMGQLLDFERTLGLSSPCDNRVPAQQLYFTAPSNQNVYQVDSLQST

[4] = target: T1, Dual specificity protein phosphatase 6
[5] = target: T2, Tyrosine-protein phosphatase non-receptor type 7 (Homo sapiens, UniProt P35236); type: functional
T2 sequence (P35236 whole entry): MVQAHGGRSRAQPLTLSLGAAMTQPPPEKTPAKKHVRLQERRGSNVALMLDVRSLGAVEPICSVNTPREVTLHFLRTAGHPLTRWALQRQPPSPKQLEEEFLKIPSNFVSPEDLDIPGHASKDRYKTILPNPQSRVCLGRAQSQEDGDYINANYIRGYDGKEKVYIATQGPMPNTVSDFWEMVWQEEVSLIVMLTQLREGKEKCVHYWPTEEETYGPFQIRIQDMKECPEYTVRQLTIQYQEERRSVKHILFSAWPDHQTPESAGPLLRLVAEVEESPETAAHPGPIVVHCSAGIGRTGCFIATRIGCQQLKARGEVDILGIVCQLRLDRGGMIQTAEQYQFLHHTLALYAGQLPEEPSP

[6] = NIH-3T3 fibroblast cytotoxicity, dose response, cytotoxicity control, cell-based, fluorescence, Alamar Blue, secondary assay (AID 2327); type: functional;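 further: NIH-3T3 mouse fibroblasts cultured with fluconazole at 8 µg/mL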
[7] = target: T3, Heat shock factor protein 1 (Mus musculus, UniProt P38532); assay: decrease of HSF1-responsive luciferase luminescence – cell-based, NIH3T3, dose retest, confirmation (AID 2382); type: functional;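 further: NIH3T3 fibroblasts with HSF1-driven luciferase reporter stressed by proteasome inhibitor MG132; luminescence from HSF1-driven luciferase expression after 8 hours of MG132 stress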
T3 sequence (P38532 whole entry): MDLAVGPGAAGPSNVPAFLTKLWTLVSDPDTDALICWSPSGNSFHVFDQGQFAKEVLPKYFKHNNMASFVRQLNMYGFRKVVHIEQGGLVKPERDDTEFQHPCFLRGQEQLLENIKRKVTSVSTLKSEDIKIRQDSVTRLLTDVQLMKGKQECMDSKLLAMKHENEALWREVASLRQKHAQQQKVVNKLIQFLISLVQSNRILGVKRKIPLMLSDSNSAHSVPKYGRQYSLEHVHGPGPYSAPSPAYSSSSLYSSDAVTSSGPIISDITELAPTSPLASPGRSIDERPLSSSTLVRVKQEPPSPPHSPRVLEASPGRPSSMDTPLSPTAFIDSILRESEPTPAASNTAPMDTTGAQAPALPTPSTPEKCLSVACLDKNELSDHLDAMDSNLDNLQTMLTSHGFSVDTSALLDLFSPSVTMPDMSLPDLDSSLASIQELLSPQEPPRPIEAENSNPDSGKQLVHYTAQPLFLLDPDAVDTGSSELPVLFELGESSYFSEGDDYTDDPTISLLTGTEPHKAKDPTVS

[8] = NIH3T3 cell viability loss – ATP luminescence, mouse fibroblasts, counter-screen, dose response (AID 2010); type: functional, cell-based;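 further: cells exposed to compound for about 90 hours before reading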
cells [9] = type: functional, cell-based
Nonstructural protein 1 = Nonstructural protein 1 (Influenza A virus, UniProt Q194T2); type: functional, Influenza A virus (A/California/07/2009(H1N1))
[10] = fluconazole-exposed Candida albicans growth modulators – fluorescence, retest, confirmation (AID 2467); type: functional, cell-based
cells [11] = type: functional, cell-based; remark: listed apart in the source
Paired box protein Pax-8 = Paired box protein Pax-8 (Homo sapiens, UniProt Q06710); assay: PAX8 transcriptional activity inhibition in RMG-I – RMG-I cells, luciferase, cherry-pick, dose response (AID 687027); type: functional, cell-based;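 further: luciferase reporter driven by Pax8 target thyroperoxidase promoter measured by SteadyGlo luminescence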
[12] = Luminescence-based counterscreen assay for KLF5 inhibitors: dose response cell-based high throughput screening assay to identify cytotoxic compounds using the IEC-6 intestinal epithelial cell line. [Related pubchem assays: 1700 (Primary screen.), 1834 (Confirmation screen.), 1858 (Summary AID.), 1905 (Counterscreen.)]; type: functional
INS1 = assay: INS-1E survival protection against cytokine death – cell-based, luminescence, retest, dose response (AID 449756); type: functional; conditions: Rattus norvegicus;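 further: cell death triggered by IL-1 beta plus TNF-alpha plus IFN-gamma mixture; protective hits raise ATP signal compared with cytokine alone wells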
[13] = Trypanosoma cruzi growth suppression in host cells – NIH3T3 host cells, beta-gal luminescence, confirmation (AID 2044); type: functional, cell-based;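 further: intracellular parasites grown in NIH/3T3 mouse fibroblasts as host cells; luminescent beta-galactosidase reporter signal from transgenic T. cruzi replicating inside host cells; inhibitors lower the luminescence signal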
[14] = target: T4, Neuropeptides B/W receptor type 1 (Homo sapiens, UniProt P48145); assay: Fluorescence-based dose response cell-based high throughput screening assay to identify antagonists of the G-protein coupled receptor 7 (GPR7). [Related pubchem assays: 1952 (Screening assay (GPR7 antagonists).), 1880 (Summary AID.)]; type: functional
T4 sequence (P48145 whole entry): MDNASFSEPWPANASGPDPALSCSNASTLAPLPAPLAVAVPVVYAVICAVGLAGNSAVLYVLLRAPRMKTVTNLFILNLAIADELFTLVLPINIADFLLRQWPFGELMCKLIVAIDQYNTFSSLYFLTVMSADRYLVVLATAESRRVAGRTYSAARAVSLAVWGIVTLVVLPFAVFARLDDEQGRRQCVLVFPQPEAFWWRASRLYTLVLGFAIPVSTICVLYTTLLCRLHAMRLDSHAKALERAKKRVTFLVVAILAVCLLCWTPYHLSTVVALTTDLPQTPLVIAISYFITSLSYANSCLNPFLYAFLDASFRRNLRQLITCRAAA

[15] = target: Melanin-concentrating hormone receptor 1 (Homo sapiens, UniProt Q99705); assay: Fluorescence-based counterscreen for antagonists of the G-protein coupled receptor 7 (GPR7): cell-based high throughput dose response assay to identify antagonists of the melanin-concentrating hormone receptor 1 (MCHR1).; type: functional
[16] = blockers of HIV-1 envelope-mediated cell-cell fusion – cherry-pick, dose response (AID 652057); type: functional, cell-based
[17] = blockers of HIV-1 ZM109 envelope-driven cell-cell fusion – HeLa effector, CEM target cells, luciferase, cherry-pick, dose response (AID 652058); type: functional, cell-based;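 further: luciferase signal from HIV-1 Env mediated cell-cell fusion of effector and target cells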
[18] = off-target signal loss in HeLa-CEM21 co-culture – HeLa F-luc CTL cells, cherry-picked, counter-screen for HIV-1 Env fusion inhibitor project, dose response (AID 652040); type: functional, cell-based;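 further: potency for signal decrease marking cytotoxic or nonspecific inhibition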
[19] = HIV-1 AD8 envelope cell-cell fusion blockers – cherry-pick, dose response (AID 652062); type: functional, cell-based;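 further: luciferase signal from cell-cell fusion driven by HIV-1 clade B AD8 Env; potency is for inhibitors of fusion seen as a drop in luminescence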
[20] = viability loss in CEM21 cells – cell-based, CellTiter-Glo luminescence, cherry-picked, cytotoxicity control for viral fusion inhibitor project, dose response (AID 652042); type: functional;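 further: potency for signal decrease meaning cytotoxicity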
fMet-Leu-Phe receptor = fMet-Leu-Phe receptor (Homo sapiens, UniProt P21462); assay: formyl peptide receptor binders – dose response (AID 519); type: functional
[21] = target: T5, Eukaryotic translation initiation factor 2-alpha kinase 3 (Homo sapiens, UniProt Q9NZJ5); assay: Counterscreen assay for PERK inhibitors: Dose response cell-based high throughput screening assay to measure inhibition of PERK at 6 hours. [Related pubchem assays: 1522, 1416 ]; type: functional
T5 sequence (Q9NZJ5 whole entry): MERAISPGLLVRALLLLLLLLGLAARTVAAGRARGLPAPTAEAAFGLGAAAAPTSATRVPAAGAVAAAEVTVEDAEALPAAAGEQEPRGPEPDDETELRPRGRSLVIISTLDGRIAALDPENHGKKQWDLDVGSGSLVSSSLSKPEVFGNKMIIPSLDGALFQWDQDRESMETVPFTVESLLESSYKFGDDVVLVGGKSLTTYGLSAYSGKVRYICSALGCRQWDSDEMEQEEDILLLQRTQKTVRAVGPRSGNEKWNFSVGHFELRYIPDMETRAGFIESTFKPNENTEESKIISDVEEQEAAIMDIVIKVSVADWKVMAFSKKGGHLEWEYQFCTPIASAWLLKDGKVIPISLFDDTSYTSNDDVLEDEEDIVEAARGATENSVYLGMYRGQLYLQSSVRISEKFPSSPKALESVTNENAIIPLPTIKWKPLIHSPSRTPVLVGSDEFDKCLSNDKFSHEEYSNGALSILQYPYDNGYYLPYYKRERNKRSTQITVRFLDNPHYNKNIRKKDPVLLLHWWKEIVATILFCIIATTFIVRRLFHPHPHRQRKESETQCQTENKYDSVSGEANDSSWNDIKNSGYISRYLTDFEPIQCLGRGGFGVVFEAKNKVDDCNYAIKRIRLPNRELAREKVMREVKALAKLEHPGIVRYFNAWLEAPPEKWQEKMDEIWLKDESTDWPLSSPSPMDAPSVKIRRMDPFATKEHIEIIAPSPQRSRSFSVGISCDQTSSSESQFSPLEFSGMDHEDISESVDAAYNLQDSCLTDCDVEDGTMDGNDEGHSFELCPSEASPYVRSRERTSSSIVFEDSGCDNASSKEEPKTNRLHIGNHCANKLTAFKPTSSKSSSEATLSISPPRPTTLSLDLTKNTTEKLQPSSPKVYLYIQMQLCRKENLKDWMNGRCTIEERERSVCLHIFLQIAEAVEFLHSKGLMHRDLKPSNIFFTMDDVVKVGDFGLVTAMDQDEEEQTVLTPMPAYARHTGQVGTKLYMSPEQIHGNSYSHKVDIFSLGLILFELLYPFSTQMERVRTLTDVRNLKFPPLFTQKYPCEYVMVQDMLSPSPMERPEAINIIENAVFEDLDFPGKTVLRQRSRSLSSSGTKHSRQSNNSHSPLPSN

[22] = target: T6, Rac GTPase-activating protein 1 (Homo sapiens, UniProt Q9H0H5); assay: blockers of MgcRacGAP-driven Rac1 GTP hydrolysis – biochemical, ADP Hunter fluorescence, primary and confirmatory, confirmation (AID 624330); type: functional
T6 sequence (Q9H0H5 whole entry): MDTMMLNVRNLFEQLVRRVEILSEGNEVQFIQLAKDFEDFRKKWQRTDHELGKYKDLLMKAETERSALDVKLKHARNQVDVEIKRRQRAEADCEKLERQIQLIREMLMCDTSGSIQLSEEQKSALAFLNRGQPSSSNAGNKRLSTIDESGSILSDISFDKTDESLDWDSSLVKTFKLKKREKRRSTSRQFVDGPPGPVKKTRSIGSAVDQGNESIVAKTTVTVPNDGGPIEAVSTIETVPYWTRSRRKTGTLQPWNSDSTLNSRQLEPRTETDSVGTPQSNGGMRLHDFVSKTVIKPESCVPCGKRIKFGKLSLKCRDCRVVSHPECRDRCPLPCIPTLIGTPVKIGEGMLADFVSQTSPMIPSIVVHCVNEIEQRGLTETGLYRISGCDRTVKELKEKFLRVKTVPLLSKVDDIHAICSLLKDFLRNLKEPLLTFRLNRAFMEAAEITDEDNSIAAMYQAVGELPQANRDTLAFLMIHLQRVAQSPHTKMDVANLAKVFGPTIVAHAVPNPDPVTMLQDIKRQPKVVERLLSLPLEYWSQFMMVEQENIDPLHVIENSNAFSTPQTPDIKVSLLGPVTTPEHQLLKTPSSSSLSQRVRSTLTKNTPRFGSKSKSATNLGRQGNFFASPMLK

[23] = target: T5, Eukaryotic translation initiation factor 2-alpha kinase 3; assay: Dose response cell-based high-throughput screening assay to measure PERK inhibition. [Related pubchem assays: 1416 ]; type: functional

Nonstructural protein 1, sequence (Q194T2 whole entry): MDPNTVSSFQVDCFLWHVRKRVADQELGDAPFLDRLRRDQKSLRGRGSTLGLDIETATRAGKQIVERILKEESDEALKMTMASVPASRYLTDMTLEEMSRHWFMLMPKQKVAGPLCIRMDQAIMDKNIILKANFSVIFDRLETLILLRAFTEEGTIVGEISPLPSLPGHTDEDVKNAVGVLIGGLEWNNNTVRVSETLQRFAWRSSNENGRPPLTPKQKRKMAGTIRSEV
fMet-Leu-Phe receptor, sequence (P21462 whole entry): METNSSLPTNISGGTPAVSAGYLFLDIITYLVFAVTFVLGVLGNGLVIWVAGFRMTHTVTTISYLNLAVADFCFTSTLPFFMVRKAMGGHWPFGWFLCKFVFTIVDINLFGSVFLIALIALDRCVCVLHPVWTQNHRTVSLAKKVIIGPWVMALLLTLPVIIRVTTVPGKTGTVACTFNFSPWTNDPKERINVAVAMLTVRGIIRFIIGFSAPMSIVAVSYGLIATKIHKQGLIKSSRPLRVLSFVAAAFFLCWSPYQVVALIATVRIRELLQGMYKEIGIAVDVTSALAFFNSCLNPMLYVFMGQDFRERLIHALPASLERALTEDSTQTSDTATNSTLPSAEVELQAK
Glyceraldehyde-3-phosphate dehydrogenase, sequence (P04406 whole entry): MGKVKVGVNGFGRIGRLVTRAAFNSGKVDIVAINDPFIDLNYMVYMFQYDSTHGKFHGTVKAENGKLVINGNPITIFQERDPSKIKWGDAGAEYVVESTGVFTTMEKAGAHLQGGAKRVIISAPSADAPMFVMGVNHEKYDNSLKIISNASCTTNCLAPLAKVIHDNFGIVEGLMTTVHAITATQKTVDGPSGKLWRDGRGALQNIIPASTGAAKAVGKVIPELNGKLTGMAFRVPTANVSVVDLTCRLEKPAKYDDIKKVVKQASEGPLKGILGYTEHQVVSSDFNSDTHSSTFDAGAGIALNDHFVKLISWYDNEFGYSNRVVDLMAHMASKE
Melanin-concentrating hormone receptor 1, sequence (Q99705 whole entry, the tested form may be a part): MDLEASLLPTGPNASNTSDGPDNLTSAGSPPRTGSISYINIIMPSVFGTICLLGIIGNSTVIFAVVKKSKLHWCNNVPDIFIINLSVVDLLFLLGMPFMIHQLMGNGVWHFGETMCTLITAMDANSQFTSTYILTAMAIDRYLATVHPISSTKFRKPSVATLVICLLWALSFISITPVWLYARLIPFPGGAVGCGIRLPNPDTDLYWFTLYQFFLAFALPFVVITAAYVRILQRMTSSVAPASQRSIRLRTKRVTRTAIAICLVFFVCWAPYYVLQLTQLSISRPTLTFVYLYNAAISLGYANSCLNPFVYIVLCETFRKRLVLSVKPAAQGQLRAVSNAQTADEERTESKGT
Paired box protein Pax-8, sequence (Q06710 whole entry): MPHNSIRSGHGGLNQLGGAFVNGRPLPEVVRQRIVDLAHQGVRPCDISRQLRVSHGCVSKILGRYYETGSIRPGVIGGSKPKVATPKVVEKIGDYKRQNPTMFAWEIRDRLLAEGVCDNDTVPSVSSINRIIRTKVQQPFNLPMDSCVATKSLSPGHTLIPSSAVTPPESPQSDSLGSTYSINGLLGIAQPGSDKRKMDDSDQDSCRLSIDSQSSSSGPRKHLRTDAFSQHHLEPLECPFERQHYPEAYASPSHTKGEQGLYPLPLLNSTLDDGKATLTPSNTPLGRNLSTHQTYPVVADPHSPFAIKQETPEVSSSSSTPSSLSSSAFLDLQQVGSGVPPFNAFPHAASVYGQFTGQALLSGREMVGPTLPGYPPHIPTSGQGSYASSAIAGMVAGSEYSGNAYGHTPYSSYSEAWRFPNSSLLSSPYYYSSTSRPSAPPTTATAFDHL

## CCNC(=O)c1ccc(C2SCC(=O)N2CCc2ccccc2)cc1 (configuration not stated)
[1]
  EC50: > 50 µM (active)

## CCCCCCCCCCCCCCCCCCC=CCCCCCC(=O)O
[2]
  IC50: > 100 µM (not active)
[3]
  IC50: > 100 µM (inactive)
[4]
  IC50: > 100 µM (inactive)
[5]
  IC50: 0.801 µM (active)

## COc1ccccc1N1CCN(Cc2cc(Br)c(O)c3ncccc23)CC1
[6]
  EC50: 19.4 µM (inconclusive)
[7]
  EC50: 0.482 µM (active)
[8]
  EC50: 6.15 µM (active)
Cells [9]
  EC50: > 350 µM (not active)
Nonstructural protein 1
  IC50: 15.4 µM (active)
[10]
  EC50: 2.22 µM (active)
Cells [11]
  EC50: 8.13 µM (active)
Paired box protein Pax-8
  AC50: 1.82 µM (active)
[12]
  IC50: 6.32 µM (active)
INS1
  AC50: 3.95 µM (active)
[13]
  EC50: 1.34 µM (active)

## Clc1ccc(C2CC(c3cccs3)n3ncnc3N2)cc1Cl (configuration not stated)
[14]
  IC50: > 4.87 µM (active)
[15]
  IC50: 16 µM (not active)
[16]
  AC50: 7.3 µM (active)
[17]
  AC50: 7.81 µM (active)
[18]
  AC50: 7.08 µM (active)
[19]
  AC50: 6.95 µM (active)
[20]
  AC50: 56.8 µM (active)
fMet-Leu-Phe receptor
  Ki: > 66.7 µM (inactive)

## Cc1c(O)ccc2c3c(c(=O)oc12)CCCC3
[21]
  EC50: > 55.7 µM (not active)
[22]
  IC50: 22.5 µM (active)
[23]
  EC50: > 55.7 µM (not active)
